From ChEMBL document CHEMBL4418317, “Piperidinyl- and piperazinyl-substituted heteroaromatic carboxamides as modulators of gpr6” (2018) come the findings set out here.

The experiment concerns the target G-protein coupled receptor 6 (Homo sapiens, UniProt P46095). In words: Modulator activity at GPR6 receptor (unknown origin) expressed in CHO-K1 cells assessed as inhibition of constitutive cAMP activity incubated for 45 mins by Eu-cAMP tracer based HTRF Ultra cAMP assay. It is filed as functional, cell-based. (Time-resolved FRET reads energy transfer from a long-lived donor to a nearby acceptor.)

G-protein coupled receptor 6, sequence (P46095 whole entry): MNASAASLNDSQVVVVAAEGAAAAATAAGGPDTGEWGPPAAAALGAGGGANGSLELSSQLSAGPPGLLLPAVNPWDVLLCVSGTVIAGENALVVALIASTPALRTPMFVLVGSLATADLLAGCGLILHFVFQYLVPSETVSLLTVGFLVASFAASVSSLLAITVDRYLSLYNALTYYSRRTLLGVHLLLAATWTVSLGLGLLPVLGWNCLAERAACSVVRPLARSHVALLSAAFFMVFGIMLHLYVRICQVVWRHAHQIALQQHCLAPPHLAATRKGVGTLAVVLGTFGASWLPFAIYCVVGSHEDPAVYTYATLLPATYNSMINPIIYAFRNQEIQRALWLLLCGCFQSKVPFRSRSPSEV

By EC50 is commonly meant the concentration at which the effect is half-maximal. In the case of `Cc1nc(C(=O)Nc2cc(C#N)ccc2N2CCC(Oc3ccc(F)cc3F)CC2)no1`, the EC50 was 2000 nM.

As to `Cn1cccc(C(=O)Nc2cc(C#N)ccc2N2CCC(Oc3cc(F)cc(F)c3)CC2)c1=O`, the concentration giving a half-maximal response (EC50) is 2000 nM.

On to `N#Cc1ccc(N2CCC(Oc3ccc(F)cc3F)CC2)c(NC(=O)c2cccn(Cc3ccccc3)c2=O)c1`, for which the EC50 was 2000 nM.
